# “And” between values parts separate entries of the source, which are not always exact repeats. Equal values may be shown once. Where a name gives a salt, the structure may show the parent alone.
# Columns and labels:
# hERG potassium channel = hERG potassium channel (Homo sapiens, UniProt Q12809); assay: In vitro hERG experiment (whole-cell patch clamp); format: cell-based; details: for IC50: whole-cell patch clamp, tail current, room temperature; for hERG inhibition: functional activity lower than that of the pharmacodynamic target: hERG IC50 versus activity at pharmacodynamic target
# Protocol: Extracellular fluid: 140 mM NaCl, 3.5 mM KCl, 1 mM MgCl2, 2 mM CaCl2, 10 mM Glucose, 10 mM HEPES, and 1.25 mM NaH2PO4, with the pH adjusted to 7.4 by NaOH.
# Under an inverted microscope, recording electrodes were controlled by a glass electrode micromanipulator (micromanipulation) to contact with the cell. A negative voltage was applied to form a GΩ seal. After forming the GΩ seal, a rapid capacitance compensation was given. Under the continuous negative voltage, the cell membrane was ruptured to establish a whole-cell recording mode. In the whole-cell recording mode, a slow capacitance compensation was given, and the values of membrane capacitance and series resistance were recorded.
# Voltage stimulation scheme for cellular hERG potassium current: the cell membrane clamping voltage was -80 mV; the voltage was first elevated from -80 mV to +30 mV, held for 2.5 s, and rapidly changed to and held at -50 mV for 4 s, thus exciting the hERG channel tail current. Data were acquired every 10 s. Leak current detection was performed at -50 mV.
# The coverslip with seeded cells was placed in the recording chamber of the inverted microscope. Negative control and test compounds flowed through the recording chamber in an ascending order of concentration by gravity perfusion to quickly act on the cells. During the recording, the extracellular fluid was continuously circulated by a vacuum pump. The current detected in a cell in the negative control was used as the background for the cell. Each compound concentration was allowed to act for 5 min or until the current was stabilized. All experiments were performed at room temperature.
# The current of each compound concentration was first normalized according to (peak tail current compound)/(peak tail current vehicle), and then the corresponding inhibition rate was calculated according to (1 - (peak tail current compound)/(peak tail current vehicle)). Basic statistics were calculated for each concentration, including mean, standard deviation (SD), standard error (SE), and replicates (n). […] Curve fitting and calculation of IC50 were performed by GraphPad Prism 5.0 software.
# 5-HT1A [1] = biological target: T1, 5-HT1A (Homo sapiens, UniProt P08908); assay: In vitro 5HT1A receptor function experiment (cAMP, forskolin-stimulated HEK293/5HT1A cells); format: cell-based; design: expressed in transfected cells; host or cells: HEK293; details: for EC50: forskolin 1 µM; for Emax: maximum activation rate
# T1 sequence (P08908 1-422): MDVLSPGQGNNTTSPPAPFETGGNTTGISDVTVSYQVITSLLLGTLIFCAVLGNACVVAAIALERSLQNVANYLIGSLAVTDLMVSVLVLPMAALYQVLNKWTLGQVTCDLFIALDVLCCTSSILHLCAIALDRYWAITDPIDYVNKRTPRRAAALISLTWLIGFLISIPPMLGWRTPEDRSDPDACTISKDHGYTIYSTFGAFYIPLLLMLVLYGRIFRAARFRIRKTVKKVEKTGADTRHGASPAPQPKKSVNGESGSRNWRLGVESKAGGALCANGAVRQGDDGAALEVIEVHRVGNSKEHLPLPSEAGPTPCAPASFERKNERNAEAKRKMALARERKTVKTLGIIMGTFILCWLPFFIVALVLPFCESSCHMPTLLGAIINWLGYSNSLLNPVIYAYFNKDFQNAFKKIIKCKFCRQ
# Protocol: 1.1.1 Cell information: HEK293/5HT1A: a stably transfected cell strain HEK293/5HT1A constructed by adopting 5HT1A receptor lentivirus to infect HEK293; growth culture medium: DMEM, 10% FBS, and 0.6 µg/mL puro; and cryopreservation culture medium: 70% culture medium, 20% FBS, and 10% DMSO.
# Dopamine D2L receptor = Dopamine D2L receptor (Homo sapiens, UniProt P14416); assay: In vitro dopamine D2L receptor function experiment (cAMP, forskolin-stimulated HEK293/D2L cells); details: for Emax: HEK293, read-out: D2L Emax
# Protocol: • (1) Compound preparation: The test compounds and dopamine were diluted to a concentration of 200 nM for later use. • (2) Experimental buffer preparation: The 5× stimulation buffer was diluted to 1× with ddH2O, and IBMX was added to a final concentration of 0.5 mM. The mixture was mixed well for later use. • (3) The cells were digested with trypsin, and centrifugation was performed after the digestion was terminated. The cell pellet was resuspended in 10 mL of pre-warmed HBSS and centrifuged again. Then, 1 mL of stimulation buffer was added for resuspension, and 20 µL of the cell suspension was taken for cell counting. • (4) An appropriate amount of the cell suspension was taken and diluted to 0.4 × 10^6 cells/mL, and 5 µL of the diluted cell suspension was added to each well of a cell plate and centrifuged at 1000 rpm for 1 min. • (5) Compound dilution and transfer using bravo: The compounds were diluted 4-fold to obtain 8 concentration points in the compound plate. The diluted compounds in the whole plate were then transferred to a 384-well white plate using bravo and centrifuged at 1000 rpm for 1 min. • (6) The experimental plate was sealed and incubated at room temperature for 15 min. • (7) Forskolin, prepared with DMSO, was added at 25.1 nL/well using Tecan D300e, with a mother liquor concentration of 0.2 mM and a final concentration of 0.25 µM, followed by centrifugation at 1000 rpm for 1 min. • (8) The plate was sealed and incubated at room temperature for 45 min. • (9) cAMP standard curve preparation: A 4-fold serial dilution was performed to obtain 8 concentration points from a starting concentration of 2848 nM. Then, 10 µL of each dilution was taken and added to the experimental plate, with a maximum concentration of 712 nM. • (10) 5 µL of cAMP-d2 solution (stock solution diluted at 1:20 with lysis buffer) was added to the experimental plate, and the plate was centrifuged at 1000 rpm for 1 min. • (11) Then, 5 µL of Anti-cAMP-Cryptate solution (stock solution diluted at 1:20 with lysis buffer) was added to the experimental plate, and the plate was centrifuged at 1000 rpm for 1 min. • (12) The experimental plate was incubated at room temperature for 45 min and centrifuged at 1000 rpm for 1 min before reading. • (13) Plate reading was performed using Envision, with excitation light at 320 nm and emission lights at 620 nm and 665 nm. The derived data were analyzed, and the maximum activation rates Emax and EC50 of the compounds were calculated.
# [2] = In vitro liver microsome stability, CD-1 mouse; details: for CLint scaled at 1 µM / half-life at 1 µM / microsomal CLint at 1 µM: CD-1, mouse, liver microsomes, pH 7.4; for CLint(liver): CD-1 mouse liver microsomes
# Protocol: (§1) • (1) Buffer preparation: 73.21 g of dipotassium hydrogen phosphate trihydrate and 10.78 g of potassium dihydrogen phosphate were dissolved in 4000 mL of ultrapure water. The pH of the solution was adjusted to within 7.40 ± 0.10 using 10% phosphoric acid or 1 M potassium hydroxide, resulting in a final concentration of 100 mM. • (2) Solution preparation and dilution: Stock solutions of the test compounds at a concentration of 10 mM were prepared in dimethyl sulfoxide (DMSO) and stored at 4 °C, and they were diluted into 100 µM working solutions with pure acetonitrile when used. A stock solution of the control compound testosterone at a concentration of 10 mM was prepared in DMSO and stored at -20 °C, and it was diluted into a 400 µM working solution with pure acetonitrile when used. • (3) Termination solution preparation: The termination solution was acetonitrile containing the internal standard buspirone. The prepared termination solution was stored in a refrigerator at 2-8 °C. • (4) Liver microsome solution preparation: Microsomes from various species (CD-1 mouse, SD rat, and human) were diluted into a 20× working solution using 100 mM potassium phosphate buffer. The final concentration of the microsomes in the reaction system was 0.5 mg/mL. • (5) Reduced nicotinamide adenine dinucleotide phosphate (NADPH) regeneration system preparation: Appropriate amounts of nicotinamide adenine dinucleotide phosphate (NADP), glucose-6-phosphate (G6P), magnesium chloride (MgCl2), and glucose-6-phosphate dehydrogenase (G6PDH) were weighed to prepare stock solutions at concentrations of 65.33 mM, 330 mM, 300 mM, and 250 Units/mL, respectively. The four stock solutions described above were each added to an appropriate amount of buffer, and the mixture was mixed well by gently inverting up and down. […] Several incubation plates were prepared and named T0, T5, T10, T20, T40, T60, PB60, and NCF60, respectively. […] The NCF60 plate was incubated for 60 min with potassium phosphate buffer replacing the NADPH regeneration system solution. The PB60 plate was incubated for 60 min with potassium phosphate buffer replacing the liver microsomes. Samples under all conditions were prepared in triplicate.
# (§2) 2 µL of the test compound or control compound and 100 µL of microsome working solution (containing 1 mg/mL liver microsome protein) were added to each of the T0, T5, T10, T20, T40, T60, and NCF60 plates, and 2 µL of the test compound and 100 µL of potassium phosphate buffer were added to the PB60 plate. The plates described above were then pre-incubated in a 37 °C water bath for about 5 min.
# (§3) After the pre-incubation, 600 µL of the termination solution was first added to the T0 samples, followed by the addition of 98 µL of NADPH regeneration system working solution. The plate was sealed, shaken, and then allowed to wait for simultaneous processing with subsequent samples. Except for the NCF60 plate where 98 µL of potassium phosphate buffer was added to each sample well, 98 µL of NADPH regeneration system working solution was added to each sample well of the other incubation plates to initiate the reaction. In the reaction system, the final concentrations of the test compound and the control compound were 1 µM and 4 µM, respectively, the concentration of the liver microsomes was 0.5 mg/mL, and the final concentrations of DMSO and acetonitrile were 0.01% (v/v) and 0.99% (v/v), respectively.
# (§4) After incubation for an appropriate time (such as 5, 10, 20, 40, and 60 min), 600 µL of the termination solution containing the internal standard was added to each test compound sample and control compound well to terminate the reaction. The plates were sealed, shaken well, and then centrifuged at 4000 ×g and 4 °C for 15 min.
# [3] = In vitro liver microsome stability, human; details: for CLint(liver): Human liver microsomes; for CLint scaled at 1 µM / half-life at 1 µM / microsomal CLint at 1 µM: human, liver microsomes, pH 7.4
# Protocol: as §1, §2, §3, §4
# [4] = In vitro liver microsome stability, SD rat; details: for CLint(liver): SD rat liver microsomes; for CLint scaled at 1 µM / half-life at 1 µM / microsomal CLint at 1 µM: SD, rat, liver microsomes, pH 7.4
# Protocol: as §1, §2, §3, §4
# Dopamine D3 receptor = biological target: T2, Dopamine D3 receptor (Homo sapiens, UniProt P35462); assay: In vitro dopamine D3 receptor function experiment (CHO-K1/D3/CRE reporter, chemiluminescence); format: cell-based; details: for EC50: forskolin 0.4 µM; for Emax: maximum activation rate
# T2 construct: expressed in transfected cells; host or cells: CHO-K1
# Protocol: 3.1.1 Cell information: CHO-K1/D3/CRE constructed by referring to the method in Example 5 of CN114369578A.
# The first day: cell plating • (1) The cultured cells were digested with trypsin, and after the digestion was terminated with culture medium, the cell suspension was transferred to a centrifuge tube and centrifuged at 750 rpm for 5 min. • (2) The supernatant was discarded, and the pellet was resuspended in an appropriate amount of plating medium.
# The following day: experimental detection • (1) The test compounds were diluted to 0.2 mM with DMSO, and the reference compound dopamine was diluted to 0.02 mM. • (2) Compound dilution (4-fold dilution at 8 concentration points) was performed using Bravo, with the starting concentrations of the test compounds and the reference compound being 5 µM and 500 nM, respectively. […] The program selected was an ultrasensitive chemiluminescence detection program.
# [5] = system: tacrine-induced jaw tremors in rats; assay: Tacrine-induced jaw tremor behavior in rats; format: in vivo, Sprague Dawley rats; details: for Inhibition of tacrine-induced jaw tremors in rats: compared to the model group; for Minimum effective dose: tacrine-induced jaw tremor in rats, compared with rotigotine
# Protocol: Test compounds: The free bases of Examples 28, 32, and 33 in the present invention, which were self-prepared.
# Positive control compound: Rotigotine.
# Molding drug: Tacrine, SIGMA, A3773-1G.
# Vehicle: Normal saline, Cisen Pharmaceutical Co., Ltd., 2111060723.
# Sprague Dawley rats, male, 10/group, Shanghai Slac Laboratory Animal Co., Ltd.
# Drug preparation: The test compound was taken, added to the vehicle, and subjected to ultrasonication.
# Administration route and method: Administration was performed by intraperitoneal injection.
# Administration frequency and duration: single administration.
# The rats were stratified according to body weight and then randomly divided into a model group, an administration group, and a control group. The rats were acclimatized for three days before the experiment. On the day of the experiment, the vehicle or drug was first injected intraperitoneally, followed by an intraperitoneal injection of tacrine at a dose of 5 mg/kg (body weight) after 60 min. After administration, the rats were placed in a transparent observation box, and the jaw tremor counting was started 10 min later. The continuous counting duration was 5 min, and the jaw tremor frequency in the rats within 5 min was recorded.
# The experimental data were expressed as x ± SEM. Inhibition rate (%) = 100% × (jaw tremor frequency in the rats of the model group - jaw tremor frequency in the rats of the administration group)/jaw tremor frequency in the rats of the model group, where *: p < 0.05, **: p < 0.01, and ***: p < 0.001 vs vehicle.
# 5-HT1A [6] = biological target: T1, 5-HT1A; details: literature value; cited from earlier work
# [7] = 1 mg/kg, 3 mg/kg, and 10 mg/kg, intraperitoneal, single administration, free base
# T2 sequence (P35462 whole entry, species assumed): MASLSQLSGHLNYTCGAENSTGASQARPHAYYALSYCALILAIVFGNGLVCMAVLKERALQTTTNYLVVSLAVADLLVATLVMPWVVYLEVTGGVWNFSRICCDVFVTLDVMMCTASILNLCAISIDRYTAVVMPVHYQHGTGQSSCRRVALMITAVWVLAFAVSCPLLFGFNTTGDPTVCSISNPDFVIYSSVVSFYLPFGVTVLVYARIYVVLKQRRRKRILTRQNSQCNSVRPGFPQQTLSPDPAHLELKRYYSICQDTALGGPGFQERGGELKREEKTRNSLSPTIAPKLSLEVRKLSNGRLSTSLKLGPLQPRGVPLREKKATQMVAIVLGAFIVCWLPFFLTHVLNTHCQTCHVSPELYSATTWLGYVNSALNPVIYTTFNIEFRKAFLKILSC
# Chain of hERG potassium channel (Q12809 whole entry): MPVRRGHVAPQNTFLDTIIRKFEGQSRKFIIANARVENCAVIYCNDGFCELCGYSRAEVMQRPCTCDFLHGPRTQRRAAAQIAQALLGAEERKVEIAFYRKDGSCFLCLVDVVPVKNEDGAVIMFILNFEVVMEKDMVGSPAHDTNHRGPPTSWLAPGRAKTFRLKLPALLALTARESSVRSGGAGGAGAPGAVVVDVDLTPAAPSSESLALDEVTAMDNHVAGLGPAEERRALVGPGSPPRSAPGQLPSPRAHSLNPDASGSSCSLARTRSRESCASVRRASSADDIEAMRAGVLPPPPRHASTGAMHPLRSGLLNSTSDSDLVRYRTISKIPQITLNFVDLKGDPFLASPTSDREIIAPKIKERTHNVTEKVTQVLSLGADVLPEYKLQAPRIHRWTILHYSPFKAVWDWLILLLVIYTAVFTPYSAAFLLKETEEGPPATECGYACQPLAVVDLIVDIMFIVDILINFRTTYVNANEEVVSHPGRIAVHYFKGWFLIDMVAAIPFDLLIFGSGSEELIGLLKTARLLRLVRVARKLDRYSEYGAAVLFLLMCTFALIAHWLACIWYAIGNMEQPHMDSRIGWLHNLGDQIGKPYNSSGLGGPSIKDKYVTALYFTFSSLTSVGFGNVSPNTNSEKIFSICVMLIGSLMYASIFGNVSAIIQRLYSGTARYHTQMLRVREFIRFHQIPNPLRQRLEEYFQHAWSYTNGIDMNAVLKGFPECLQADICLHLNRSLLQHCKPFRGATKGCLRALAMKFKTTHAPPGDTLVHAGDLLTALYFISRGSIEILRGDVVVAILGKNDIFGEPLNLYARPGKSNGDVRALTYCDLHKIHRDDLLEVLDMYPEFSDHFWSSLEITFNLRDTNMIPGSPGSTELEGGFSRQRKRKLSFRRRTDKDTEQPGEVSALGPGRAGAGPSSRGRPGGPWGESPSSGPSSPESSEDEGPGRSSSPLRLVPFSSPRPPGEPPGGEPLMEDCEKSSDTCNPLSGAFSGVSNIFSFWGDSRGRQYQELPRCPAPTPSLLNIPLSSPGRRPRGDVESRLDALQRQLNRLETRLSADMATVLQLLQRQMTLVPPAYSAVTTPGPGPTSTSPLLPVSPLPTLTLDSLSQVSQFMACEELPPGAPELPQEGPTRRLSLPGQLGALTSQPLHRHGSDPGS
# Chain of Dopamine D2L receptor (P14416 whole entry): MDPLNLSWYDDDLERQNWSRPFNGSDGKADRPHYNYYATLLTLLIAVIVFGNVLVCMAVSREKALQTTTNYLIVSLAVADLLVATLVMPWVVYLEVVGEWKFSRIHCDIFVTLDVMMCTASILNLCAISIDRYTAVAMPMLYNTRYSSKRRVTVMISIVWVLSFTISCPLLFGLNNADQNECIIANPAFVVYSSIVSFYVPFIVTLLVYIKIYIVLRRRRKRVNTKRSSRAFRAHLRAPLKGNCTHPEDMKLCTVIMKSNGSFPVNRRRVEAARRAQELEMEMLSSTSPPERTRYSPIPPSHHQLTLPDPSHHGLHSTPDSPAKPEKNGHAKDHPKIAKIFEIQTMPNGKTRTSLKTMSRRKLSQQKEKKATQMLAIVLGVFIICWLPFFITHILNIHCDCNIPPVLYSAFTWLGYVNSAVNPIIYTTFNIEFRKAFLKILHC
SMILES,EC50 (5-HT1A [1]) [nM],Emax (5-HT1A [1]) [%],EC50 (Dopamine D2L receptor) [nM],Emax (Dopamine D2L receptor) [%],CLint scaled at 1 µM [2] [mL/min/kg],microsomal CLint at 1 µM [2] [µL/min/mg],CLint(liver) [2] [mL/min/K g],CLint(liver) [3] [mL/min/K g],CLint scaled at 1 µM [3] [mL/min/kg],microsomal CLint at 1 µM [3] [µL/min/mg],CLint(liver) [4] [mL/min/K g],CLint scaled at 1 µM [4] [mL/min/kg],half-life at 1 µM [4] [h],microsomal CLint at 1 µM [4] [µL/min/mg],EC50 (Dopamine D3 receptor) [nM],Emax (Dopamine D3 receptor) [%],IC50 (hERG potassium channel),"Inhibition of tacrine-induced jaw tremors in rats [5, 7]",Minimum effective dose [5],other results
"CCCN(CC1CCN(C(=O)OC)CC1)[C@@H]1CCc2nc(N)sc2C1 (stereo in doubt) [Comparative Example 3, Methyl (R)-4-(((2-amino-4,5,6,7-tetrahydrobenzo[d]thiazol-6-yl)(propyl)amino)methyl)piperidine-1-carboxylate hydrochloride, reference compound]",203,97,0.95,112,,,,,,,,,,,,,5100 nM,,,
"CCCN(CCN1CCN(c2cccc(Cl)c2Cl)CC1)[C@H]1CCc2nc(N)sc2C1 [Comparative Example 1, (S)-N^6-(2-(4-(2,3-Dichlorophenyl)piperazin-1-yl)ethyl)-N^6-propyl-4,5,6,7-tetrahydrobenzo[d]thiazole-2,6-diamine hydrochloride, reference compound]",203,99.1,0.25,101,,,,,,,,,,,,,,,,
"CCCN(CC1CCN(C(=O)OC)CC1)C1CCc2nc(N)sc2C1 (stereo not shown) [Comparative Example 2, Methyl 4-(((2-amino-4,5,6,7-tetrahydrobenzo[d]thiazol-6-yl)(propyl)amino)methyl)piperidine-1-carboxylate hydrochloride, reference compound]",247,95.4,1.68,112,,,,,,,,,,,,,4700 nM,,,
Cc1ccc(CNCC2(F)CCN(C(=O)c3ccc(F)c(Cl)c3)CC2)nc1 [NLX-112],,,,,,,,,,,,,,,,,,,,5-HT1A Emax (5-HT1A [6]): 84%
"CCCN(CCc1cccs1)[C@H]1CCc2c(O)cccc2C1 [rotigotine, Rotigotine, reference compound]",,,,,,,,,,,,,,,,,,,,"Inhibition of tacrine-induced jaw tremors in rats ([5]; 10 mg/kg, positive control): significantly inhibited"

# Continued, in another order:
EC50 (5-HT1A [1]) [nM],Emax (5-HT1A [1]) [%],EC50 (Dopamine D2L receptor) [nM],Emax (Dopamine D2L receptor) [%],CLint scaled at 1 µM [2] [mL/min/kg],microsomal CLint at 1 µM [2] [µL/min/mg],CLint(liver) [2] [mL/min/K g],CLint(liver) [3] [mL/min/K g],CLint scaled at 1 µM [3] [mL/min/kg],microsomal CLint at 1 µM [3] [µL/min/mg],CLint(liver) [4] [mL/min/K g],CLint scaled at 1 µM [4] [mL/min/kg],half-life at 1 µM [4] [h],microsomal CLint at 1 µM [4] [µL/min/mg],EC50 (Dopamine D3 receptor) [nM],Emax (Dopamine D3 receptor) [%],SMILES,IC50 (hERG potassium channel),"Inhibition of tacrine-induced jaw tremors in rats [5, 7]",Minimum effective dose [5],other results
51.6,114,,,38.6 to 210,17.4,68.8,27.7,8.9 to 48.3,30.8,76.9,23.7 to 129,0.54,42.7,1.1,109,"CCCN(CC1CCN(C(=O)c2ccccc2)CC1)[C@H]1CCc2nc(N)sc2C1 [Example 17, (S)-(4-(((2-Amino-4,5,6,7-tetrahydrobenzo[d]thiazol-6-yl)(propyl)amino)methyl)piperidin-1-yl)(phenyl)methanone]",,,,half-life at 1 µM [2]: 1.33 h; half-life at 1 µM [3]: 0.75 h
122,103,,,< 38.6,13.9,13.4,1.0,< 8.9,1.1,2.7,< 23.7,14.8,2.8,,,"CCCN(CC1CCN(C(=O)c2cnn(C)c2)CC1)[C@H]1CCc2nc(N)sc2C1 [Example 28, (S)-(4-(((2-Amino-4,5,6,7-tetrahydrobenzo[d]thiazol-6-yl)(propyl)amino)methyl)piperidin-1-yl)(1-methyl-1H-pyrazol-4-yl)methanone]",20000 nM and 23300 nM,significantly inhibited,lower than that of the positive control drug,half-life at 1 µM [2]: 6.57 h; half-life at 1 µM [3]: 19.7 h
25.7,102,,,38.6 to 210,11.5,45.5,10.3,8.9 to 48.3,11.5,38.5,23.7 to 129,1.08,21.4,1.3,120,"CCCN(CC1CCN(C(=O)N(C)C)CC1)[C@H]1CCc2nc(N)sc2C1 [Example 32, (S)-4-(((2-Amino-4,5,6,7-tetrahydrobenzo[d]thiazol-6-yl)(propyl)amino)methyl)-N,N-dimethylpiperidine-1-carboxamide]",20000 nM and 17800 nM,significantly inhibited,lower than that of the positive control drug,hERG inhibition: functional activity lower than that of the pharmacodynamic target (hERG potassium channel): ≥ 1000 fold
162,92.7,,,38.6 to 210,12.6,50.0,2.6,< 8.9,2.9,27.3,23.7 to 129,1.52,15.2,1.1,107,"CCCN(CC1CCN(C(=O)N2CCOCC2)CC1)[C@H]1CCc2nc(N)sc2C1 [Example 33, (S)-(4-(((2-Amino-4,5,6,7-tetrahydrobenzo[d]thiazol-6-yl)(propyl)amino)methyl)piperidin-1-yl)(morpholino)methanone]",20000 nM and 20200 nM,significantly inhibited,lower than that of the positive control drug,hERG inhibition: functional activity lower than that of the pharmacodynamic target (hERG potassium channel): ≥ 1000 fold

# — EP4570798A1, “AROMATIC HETEROCYCLIC CYCLOHEXYL AMINOALKYL PIPERIDINE DERIVATIVE, PREPARATION METHOD AND USE THEREOF” (Jiangsu NHWA Pharmaceutical Co., Ltd, priority 2022, dated 2024)
